Read-outs that look alike come from different tables or passages of the source.
Tests used:
EP3 receptor [1] = molecular target: T1, EP3 receptor (Homo sapiens, UniProt P43115); assay: [3H]-PGE2 binding assay (EP3 competition binding)
T1 construct: purchased Millipore HTS092M
T1 sequence (P43115 1-390): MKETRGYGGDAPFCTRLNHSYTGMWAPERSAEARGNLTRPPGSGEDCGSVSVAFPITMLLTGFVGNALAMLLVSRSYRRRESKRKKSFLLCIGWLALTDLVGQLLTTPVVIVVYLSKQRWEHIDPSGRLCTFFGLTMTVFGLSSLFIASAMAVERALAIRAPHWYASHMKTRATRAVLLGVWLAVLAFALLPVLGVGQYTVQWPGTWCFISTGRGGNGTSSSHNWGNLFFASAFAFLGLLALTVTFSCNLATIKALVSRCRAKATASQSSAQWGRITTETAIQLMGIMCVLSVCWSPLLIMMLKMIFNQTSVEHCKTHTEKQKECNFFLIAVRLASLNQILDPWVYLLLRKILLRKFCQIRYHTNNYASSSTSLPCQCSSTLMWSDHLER
Procedure: EP3 competition binding was determined using the following materials and experimental conditions:
Beads=Perkin Elmer RPNQ0001
EP3 membrane=Millipore HTS092M
Membrane concentration=2 μg/well
Beads concentration=0.25 mg/well
[3H]-PGE2=2 nM; DMSO—0.1%
Binding buffer=50 mM Tris, 10 mM MgCl2, 1 mM • EDTA, PH 7.4.
The binding buffer was removed from refrigeration (@ 4° C.) and allowed to warm to room temperature. Test compound (@ stock concentration of […] in DMSO) was serial dilutes (1:3) with 100% DMSO using Echo plate. Diluted test compound (30 nL) was dispensed to the 384-well assay plate (using Echo 550 Labcyte System). To each well was then added assay buffer (5 μl) and each well was spun. Beads were weighed out, dissolved in assay buffer to a concentration of 0.25 mg/15 μl. Original membrane was diluted with assay buffer to a concentration of 2 μg/5 μl. […] To each test well were then added diluted [3H]-PGE2 (5 μl), diluted membrane (5 μl), and dissolved beads (15 μl). The plate was equilibrated at room temperature on a plate shaker for 2 hours and then read with a TOPCOUNT scintillation plate reader. Results were analyzed using a Prism program with non-linear regression, one-site fit for Ki.

EP3 receptor [2] = molecular target: T1, EP3 receptor; assay: CHO cell cAMP assay (forskolin and sulprostone stimulated, HTRF); type: cell-based; conditions: CHO cells; sulprostone 700 nM (EC80) and FSK 2 μM (EC70), 37° C. for 30 minutes; read-out: CHO_cAMP IC50
Procedure: For detection, a homogeneous competitive immunoassay (Time Resolved Fluorescence Energy Transfer (hTR-FRET)) was used.
Cells (6K cells per well) were plated in Poly-D-Lysine coated plates the day before the assay was to be run and were incubated at 37° C. […] At the start of the assay the buffer was removed from the cells and replaced with buffer containing test compound(s). Sulprostone at an EC80 dose (700 nM) and FSK at an EC70 dose (2 μM) were added to initiate the reaction (37° C. for 30 minutes).
FSK increases cAMP production and sulprostone decreases cAMP production produced by FSK. In this assay, EP3 antagonists will increase the cAMP to the level of cAMP generated by FSK alone.
Approximately one hour later the plates were read on an Envision (Perkin Elmer) in HTRF mode.
NSP, NSN, NSsample were converted to nM cAMP using the following equation: […]
IC50 values were determined from a […] (Hill equation) of a single 11-point compound dosing.

SMILES | Ki (EP3 receptor [1]; read-out: [3H]-PGE2 Binding Ki) [µM] | IC50 (EP3 receptor [2]) [µM] | Ki (EP3 receptor [1]; [3H]-PGE2 Binding Ki) [µM]
CCS(=O)(=O)N1CCC(c2ccc(-c3ccc4ccccc4c3)[nH]c2=O)CC1 [compound 190, 3-(1-(ethylsulfonyl)piperidin-4-yl)-6-(naphthalen-2-yl)pyridin-2(1H)-one] | 0.032 | 0.614 | 
CC(C)C(CC1OC(=O)NC1=O)c1ccc(-c2cc(Cl)c3c(c2)ncn3C)[nH]c1=O (stereo not shown) [compound 107, 5-(2-(6-(7-chloro-1-methyl-1H-benzo[d]imidazol-5-yl)-2-oxo-1,2-dihydropyridin-3-yl)-3-methylbutyl)oxazolidine-2,4-dione] | > 10 | > 20 | 
CCn1ncc2c(F)cc(-c3ccc(C4(F)CCCN(S(=O)(=O)C(C)C)C4)c(=O)[nH]3)cc21 (stereo not shown) [compound 296, 6-(1-ethyl-4-fluoro-1H-indazol-6-yl)-3-(3-fluoro-1-(isopropylsulfonyl)piperidin-3-yl)pyridin-2(1H)-one] | 0.001 | 0.103 | 
N#CC1(OC(N)=O)CCCC(c2ccc(-c3ccc4ccccc4c3)[nH]c2=O)C1 (stereo not shown) [compound 185, 1-cyano-3-(6-(naphthalen-2-yl)-2-oxo-1,2-dihydropyridin-3-yl)cyclohexyl carbamate] | 0.031 | 0.314 | 
CCn1ncc2c(F)cc(-c3ccc(C(C(C)C)N4CCS(=O)(=O)CC4)c(=O)[nH]3)cc21 (stereo not shown) [Compound #168, 3-(1-(1,1-dioxidothiomorpholino)-2-methylpropyl)-6-(1-ethyl-4-fluoro-1H-indazol-6-yl)pyridin-2(1H)-one] | 0.026 | 0.13 | 
CC(C)S(=O)(=O)N1CCC(c2ccc(-c3ccc4ccccc4c3)[nH]c2=O)CC1 [compound 200, 3-(1-(isopropylsulfonyl)piperidin-4-yl)-6-(naphthalen-2-yl)pyridin-2(1H)-one] | 0.038 | 1.25 | 
CCN1CCOc2ccc(-c3ccc(C(CN4CCS(=O)(=O)CC4)C(C)C)c(=O)[nH]3)cc21 (stereo not shown) [Compound #104, 3-(1-(1,1-dioxidothiomorpholino)-3-methylbutan-2-yl)-6-(4-ethyl-3,4-dihydro-2H-benzo[b][1,4]oxazin-6-yl)pyridin-2(1H)-one] | 0.053 | 0.375 | 
CC(C)C(Cc1cc(Cl)c(-c2ccc3cccc(F)c3c2)[nH]c1=O)c1noc(=O)[nH]1 (stereo not shown) [Compound #272, 3-(1-(5-chloro-6-(8-fluoronaphthalen-2-yl)-2-oxo-1,2-dihydropyridin-3-yl)-3-methylbutan-2-yl)-1,2,4-oxadiazol-5(4H)-one] | > 10 | > 20 | 
CC1(c2ccc(-c3ccc4ccccc4c3)[nH]c2=O)CNC(N)=N1 (stereo not shown) [compound 287, 3-(2-amino-4-methyl-4,5-dihydro-1H-imidazol-4-yl)-6-(naphthalen-2-yl)pyridin-2(1H)-one] | 0.157 | 8.68 | 
CCN1CCOc2c(F)cc(-c3ccc(C(CC)(CC)CC4CCNC4=O)c(=O)[nH]3)cc21 (stereo not shown) [compound 17, 6-(4-ethyl-8-fluoro-3,4-dihydro-2H-benzo[b][1,4]oxazin-6-yl)-3-(3-((2-oxopyrrolidin-3-yl)methyl)pentan-3-yl)pyridin-2(1H)-one] | 0.014 |  | 
CCC(CC)(c1ncc[nH]1)c1ccc(-c2ccc3cc(F)cc(F)c3c2)[nH]c1=O [compound 50, 3-(3-(1H-imidazol-2-yl)pentan-3-yl)-6-(6,8-difluoronaphthalen-2-yl)pyridin-2(1H)-one] | 1.08 |  | 
CCn1ncc2c(F)cc(-c3ccc(C4CC5CN(S(=O)(=O)C(C)C)CC5C4)c(=O)[nH]3)cc21 (stereo not shown) [compound 205, 6-(1-ethyl-4-fluoro-1H-indazol-6-yl)-3-(2-(isopropylsulfonyl)-octahydrocyclopenta[c]pyrrol-5-yl)pyridin-2(1H)-one] | 0.051 |  | 
CCn1ncc2c(F)cc(-c3ccc(C4CC5CCC(C4)N5S(=O)(=O)C(C)C)c(=O)[nH]3)cc21 (stereo not shown) [compound 206, 6-(1-ethyl-4-fluoro-1H-indazol-6-yl)-3-(8-(isopropylsulfonyl)-8-azabicyclo[3.2.1]octan-3-yl)pyridin-2(1H)-one] |  |  | 0.025
CC(C)c1cccc2ccc(-c3ccc(C(/C=C4\OC(=O)NC4=O)C(C)C)c(=O)[nH]3)cc12 (stereo not shown) [compound 135, (Z)-5-(2-(6-(8-isopropylnaphthalen-2-yl)-2-oxo-1,2-dihydropyridin-3-yl)-3-methylbutylidene)oxazolidine-2,4-dione] | 0.085 |  | 
CCn1ncc2c(F)cc(-c3ccc(C(CC)(CC)CC4CCCNC4=O)c(=O)[nH]3)cc21 (stereo not shown) [compound 58, 6-(1-ethyl-4-fluoro-1H-indazol-6-yl)-3-(3-((2-oxopiperidin-3-yl)methyl)pentan-3-yl)pyridin-2(1H)-one] | 0.007 |  | 
CCn1ncc2c(F)cc(-c3ccc(C4(C(C)C)OCCNC4=O)c(=O)[nH]3)cc21 (stereo not shown) [compound 248, 2-(6-(1-ethyl-4-fluoro-1H-indazol-6-yl)-2-oxo-1,2-dihydropyridin-3-yl)-2-isopropylmorpholin-3-one] | 0.01 |  | 
CC(C)C(/C=C1/OC(=O)NC1=O)c1ccc(-c2ccc3cccc(C#N)c3c2)[nH]c1=O (stereo not shown) [compound 310, (E)-7-(5-(1-(2,4-dioxooxazolidin-5-ylidene)-3-methylbutan-2-yl)-6-oxo-1,6-dihydropyridin-2-yl)-1-naphthonitrile] | 0.071 |  | 

Further lines, with some results ahead:

Ki (EP3 receptor [1]; read-out: [3H]-PGE2 Binding Ki) [µM] | IC50 (EP3 receptor [2]) [µM] | SMILES | Ki (EP3 receptor [1]; [3H]-PGE2 Binding Ki) [µM]
0.017 | 0.349 | CCn1ncc2c(F)cc(-c3ccc(C(CC)(CC)c4nnn[nH]4)c(=O)[nH]3)cc21 [Compound #3, 3-(3-(1H-tetrazol-5-yl)pentan-3-yl)-6-(1-ethyl-4-fluoro-1H-indazol-6-yl)pyridin-2(1H)-one] | 
0.05 | 0.555 | CCn1ncc2c(C)cc(-c3ccc(C(/C=C4\OC(=O)NC4=O)C(C)C)c(=O)[nH]3)cc21 (stereo not shown) [compound 106, (Z)-5-(2-(6-(1-ethyl-4-methyl-1H-indazol-6-yl)-2-oxo-1,2-dihydropyridin-3-yl)-3-methylbutylidene)oxazolidine-2,4-dione] | 
 | > 20 | CCn1ncc2cc(C)c(-c3ccc(C(/C=C4/OC(=O)NC4=O)(CC)CC)c(=O)[nH]3)cc21 [compound 43, 5-(2-ethyl-2-(6-(1-ethyl-5-methyl-1H-indazol-6-yl)-2-oxo-1,2-dihydropyridin-3-yl)butylidene)oxazolidine-2,4-dione] | 
 | 17.6 | CCn1nc(C)c2ccc(-c3ccc(C(C=C4OC(=O)NC4=O)(CC)CC)c(=O)[nH]3)cc21 [compound 34, 5-(2-ethyl-2-(6-(1-ethyl-3-methyl-1H-indazol-6-yl)-2-oxo-1,2-dihydropyridin-3-yl)butylidene)oxazo-lidine-2,4-dione] | 
0.228 |  | CCC(/C=C1\OC(=O)NC1=O)(CC)c1ccc(-c2ccc3cccc(C(F)(F)F)c3c2)[nH]c1=O [compound 23, 5-(2-ethyl-2-(2-oxo-6-(8-(trifluoromethyl)naphthalen-2-yl)-1,2-dihydropyridin-3-yl)butylidene)oxazolidine-2,4-dione] | 
0.292 |  | CCC(/C=C1/OC(=O)NC1=O)(CC)c1ccc(-c2ccc3cc(F)cc(F)c3c2)[nH]c1=O [compound 32, (E)-5-(2-(6-(6,8-difluoronaphthalen-2-yl)-2-oxo-1,2-dihydropyridin-3-yl)-2-ethylbutylidene)oxazolidine-2,4-dione] | 
0.013 |  | CCn1ncc2c(F)cc(-c3ccc(C(CC)(CC)c4nnc(C(C)C)o4)c(=O)[nH]3)cc21 [Compound #38, 6-(1-ethyl-4-fluoro-1H-indazol-6-yl)-3-(3-(5-isopropyl-1,3,4-oxadiazol-2-yl)pentan-3-yl)pyridin-2(1H)-one] | 
0.019 |  | CCn1ncc2c(F)cc(-c3ccc(C(CC)(CC)c4nnc(N)s4)c(=O)[nH]3)cc21 [Compound #52, 3-(3-(5-amino-1,3,4-thiadiazol-2-yl)pentan-3-yl)-6-(1-ethyl-4-fluoro-1H-indazol-6-yl)pyridin-2(1H)-one] | 
2.06 |  | CCn1ncc2c(F)cc(-c3ccc(C(CC)(CC)c4nnc(N)o4)c(=O)[nH]3)cc21 [Compound #51, 3-(3-(5-amino-1,3,4-oxadiazol-2-yl)pentan-3-yl)-6-(1-ethyl-4-fluoro-1H-indazol-6-yl)pyridin-2(1H)-one] | 

Source: patent US10336701B2, “Pyridin-2-one derivatives of formula (II) useful as EP3 receptor antagonists” (Janssen Pharmaceutica NV, priority 2017, dated 2019)
